Results taken from patent US11111243B2, “Azaindole compounds as histone methyltransferase inhibitors” (GLOBAL BLOOD THERAPEUTICS, INC., priority 2017, dated 2021).
Structures can show the parent of a compound that is named as a salt.

Molecular target: T1, G9a (Homo sapiens, UniProt Q96KQ7)
T1 sequence (Q96KQ7 1-1210): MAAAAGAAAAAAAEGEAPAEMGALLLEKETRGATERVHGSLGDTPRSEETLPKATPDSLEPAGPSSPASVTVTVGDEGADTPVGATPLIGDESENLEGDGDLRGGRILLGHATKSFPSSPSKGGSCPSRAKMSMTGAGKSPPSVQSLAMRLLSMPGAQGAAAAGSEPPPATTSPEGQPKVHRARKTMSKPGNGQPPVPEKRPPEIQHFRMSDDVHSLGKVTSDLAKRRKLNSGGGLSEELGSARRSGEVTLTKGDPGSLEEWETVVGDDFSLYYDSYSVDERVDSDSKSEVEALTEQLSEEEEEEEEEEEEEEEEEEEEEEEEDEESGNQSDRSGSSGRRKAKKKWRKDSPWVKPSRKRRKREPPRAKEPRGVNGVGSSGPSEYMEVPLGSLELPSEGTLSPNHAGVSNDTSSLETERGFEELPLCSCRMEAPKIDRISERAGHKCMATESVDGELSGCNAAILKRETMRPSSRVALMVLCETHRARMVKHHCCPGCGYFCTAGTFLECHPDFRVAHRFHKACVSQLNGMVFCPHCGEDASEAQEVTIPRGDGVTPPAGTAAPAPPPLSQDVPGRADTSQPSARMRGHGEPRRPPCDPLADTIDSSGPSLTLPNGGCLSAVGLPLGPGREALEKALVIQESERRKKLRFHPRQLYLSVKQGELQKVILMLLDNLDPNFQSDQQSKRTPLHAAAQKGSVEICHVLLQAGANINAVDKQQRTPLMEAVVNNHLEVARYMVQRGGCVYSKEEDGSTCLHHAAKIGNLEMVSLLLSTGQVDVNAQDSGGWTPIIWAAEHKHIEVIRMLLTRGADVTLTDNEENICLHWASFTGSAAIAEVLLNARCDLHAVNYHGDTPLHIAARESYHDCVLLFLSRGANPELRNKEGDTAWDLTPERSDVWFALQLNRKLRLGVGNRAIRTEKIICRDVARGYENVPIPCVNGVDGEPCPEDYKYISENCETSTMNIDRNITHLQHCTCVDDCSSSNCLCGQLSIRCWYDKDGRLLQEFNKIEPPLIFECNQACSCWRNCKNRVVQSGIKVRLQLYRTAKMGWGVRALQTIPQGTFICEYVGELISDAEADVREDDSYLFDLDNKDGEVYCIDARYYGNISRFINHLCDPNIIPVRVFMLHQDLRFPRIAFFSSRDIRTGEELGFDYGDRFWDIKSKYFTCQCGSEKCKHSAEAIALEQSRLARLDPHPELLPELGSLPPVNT
Assay: G9a AlphaLISA enzymatic activity assay
Type: biochemical
Conditions: 0.15 nM G9a, 10 uM S-adenosyl-methionine, 100 nM biotinylated histone 3 peptide (1-21), 1 h room temperature
From the text: The G9a AlphaLISA assay was used to detect the methyl modifications of a biotinylated histone H3 peptide by the compounds. These modifications are done by the histone methyl transferase activity of the G9a enzyme. The assay consists of reading a chemiluminescent signal at 615 nm; this signal is generated by a laser excitation at 680 nm that transfers a reactive singlet oxygen between the donor beads and acceptor beads. Donor beads are streptavidin conjugated and bind to the biotin on the peptide. Acceptor beads are conjugated with an antibody that recognizes the specific G9a methyl mark on the peptide. If there is a methyl mark on the peptide, the acceptor beads will bind to the peptide. Upon binding, the acceptor beads will be in close proximity (<200 nm) of the donor beads and when the donor beads are excited, the transfer of the oxygen can occur and a strong signal will be generated. If there is no methyl mark, the interaction between beads will not occur and signal will be at background levels.
For the assay, the following buffer was used to set up reactions: 50 mM Tris-HCl pH9, 50 mM NaCl, 0.01% Tween-20 and 1 mM DTT (added fresh prior to starting the reactions). The assay is set up by adding a final concentration of 0.15 nM G9a, 10 uM S-adenosyl-methionine and, 100 nM biotinylated histone 3 peptide (1-21). The reaction is incubated at room temperature for 1 h, and subsequently quenched by the addition of the acceptor beads (anti-H3k9me2 AlphaLISA acceptor beads, PerkinElmer #AL117) at a final concentration of 20 ug/mL. The acceptor beads are incubated for 1 h. After 1 h, the donor beads are added at a final concentration of 20 ug/mL (Alpha Streptavidin donor beads, PerkinElmer #6760002). Donor beads are incubated for 0.5 h. Both donor and acceptor beads are resuspended in AlphaLISA 5× Epigenetics Buffer 1 Kit (PerkinElmer #AL008) prior to addition to the reaction. All manipulations and incubations with the donor and acceptor beads are done in subdued light. Signal is detected in an EnVision plate reader in Alpha mode (See ACS Med Chem Lett. 2014 Jan. 2; 5(2):205-9)
Percent inhibition was calculated for each compound dilution and the concentration that produced 50% inhibition was calculated. This value is presented as the IC50.

IC50 [µM]	SMILES
0.053	COc1cc2c(cc1OCCCN1CC[C@@H](F)C1)[nH]c1ccnc(C3CC3)c12 [Compound 62, (3R)-1-[3-({1-cyclopropyl-8-methoxy-5H-pyrido[4,3-b]indol-7-yl}oxy)propyl]-3-fluoropyrrolidine hydrochloride]
0.13	COc1cc2c(cc1OCCCN1CC[C@H](F)C1)[nH]c1ccnc(C3CC3)c12 [Compound 63, (3S)-1-[3-({1-cyclopropyl-8-methoxy-5H-pyrido[4,3-b]indol-7-yl}oxy)propyl]-3-fluoropyrrolidine hydrochloride]
0.0082	COc1cc2c(cc1OCCCN1CCCC1)[nH]c1ccnc(C3CCOCC3)c12 [Compound 65, 1-(3-{[8-methoxy-1-(oxan-4-yl)-5H-pyrido[4,3-b]indol-7-yl]oxy}propyl)pyrrolidine hydrochloride]
0.03	COc1cc2c(cc1OCCCN(C)C)[nH]c1ccnc(C3CCC3)c12 [Compound 69, [3-({1-cyclobutyl-8-methoxy-5H-pyrido[4,3-b]indol-7-yl}oxy)propyl]dimethylamine hydrochloride]
0.4	COc1cc2c(cc1OCCN(C)C)[nH]c1ccncc12 [Compound 70, [2-({8-methoxy-5H-pyrido[4,3-b]indol-7-yl}oxy)ethyl]dimethylamine hydrochloride]
0.96	COc1cc2c(cc1OCCCN1CCCC1)[nH]c1ccnc(OC3CCOCC3)c12 [Compound 73, 1-(3-{[8-methoxy-1-(oxan-4-yloxy)-5H-pyrido[4,3-b]indol-7-yl]oxy}propyl)pyrrolidine trifluoroacetate]
0.0067	COc1cc2c(cc1OCCCN1CCCC1)[nH]c1ccnc(OC3CCNC3)c12 (centres unmarked) [Compound 74, 3-({8-methoxy-7-[3-(pyrrolidin-1-yl)propoxy]-5H-pyrido[4,3-b]indol-1-yl}oxy)pyrrolidine bis(2,2,2-trifluoroacetate)]
0.26	COc1cc2c(cc1OCCCN1CCCC1)[nH]c1ccnc(-c3cncs3)c12 [Compound 78, 5-{8-methoxy-7-[3-(pyrrolidin-1-yl)propoxy]-5H-pyrido[4,3-b]indol-1-yl}-1,3-thiazole trifluoroacetate]
> 10	COc1cc2c(cc1OCCCN1CCCC1)[nH]c1cc(O)ncc12 [Compound 80, 8-methoxy-7-(3-(pyrrolidin-1-yl)propoxy)-5H-pyrido[4,3-b]indol-3-ol formate]
0.0045	COc1cc2c(cc1OCCCN1CCCC1)[nH]c1ccnc(CO)c12 [Compound 82, 8-methoxy-7-[3-(pyrrolidin-1-yl)propoxy]-5H-pyrido[4,3-b]indol-1-yl]methanol trifluoroacetate]
0.017	COc1cc2c(cc1OCCCN1CCCC1)[nH]c1ccnc(-c3cnc[nH]3)c12 [Compound 84, 1-(1H-imidazol-5-yl)-8-methoxy-7-(3-(pyrrolidin-1-yl)propoxy)-5H-pyrido[4,3-b]indole trifluoroacetate]
0.017	CCN(CC)c1nccc2[nH]c3cc(OCCCN4CCCC4)c(OC)cc3c12 [Compound 85, N,N-diethyl-8-methoxy-7-[3-(pyrrolidin-1-yl)propoxy]-5H-pyrido[4,3-b]indol-1-amine bis formate]
0.18	COc1cc2c(cc1OCCCN1CCCC1)[nH]c1c(Cl)cnc(N3CCCC3)c12 [Compound 86, 1-{4-chloro-8-methoxy-7-[3-(pyrrolidin-1-yl)propoxy]-5H-pyrido[4,3-b]indol-1-yl}pyrrolidine hydrochloride]
0.24	COc1cc2c(cc1OCC1CCCNC1)[nH]c1ccncc12 (centres unmarked) [Compound 87, 3-[({8-methoxy-5H-pyrido[4,3-b]indol-7-yl}oxy)methyl]piperidine hydrochloride]
0.012	COc1cc2c(cc1OCCCN(C)C)[nH]c1ccncc12 [Compound 88, [3-({8-methoxy-5H-pyrido[4,3-b]indol-7-yl}oxy)propyl]dimethylamine hydrochloride]

Second part, the compound before the results:

SMILES	IC50 [µM]
COc1cc2c(cc1OCCCN(C(C)C)C(C)C)[nH]c1ccnc(C3CC3)c12 [Compound 61, [3-({1-cyclopropyl-8-methoxy-5H-pyrido[4,3-b]indol-7-yl}oxy)propyl]bis(propan-2-yl)amine hydrochloride]	0.48
COc1cc2c(cc1OCCCN1CCCC1)[nH]c1ccnc(C3=CCOCC3)c12 [Compound 64, 1-(3-{[1-(3,6-dihydro-2H-pyran-4-yl)-8-methoxy-5H-pyrido[4,3-b]indol-7-yl]oxy}propyl)pyrrolidine hydrochloride]	0.012
COc1cc2c(cc1OCCCN(C)C)[nH]c1ccnc(C(C)C)c12 [Compound 67, (3-{[8-methoxy-1-(propan-2-yl)-5H-pyrido[4,3-b]indol-7-yl]oxy}propyl)dimethylamine hydrochloride]	0.0095
COc1cc2c(cc1OCCCN(C)C)[nH]c1ccnc(C3CCOCC3)c12 [Compound 68, (3-{[8-methoxy-1-(oxan-4-yl)-5H-pyrido[4,3-b]indol-7-yl]oxy}propyl)dimethylamine hydrochloride]	0.026
COc1cc2c(cc1OCCN1CCCC1)[nH]c1ccncc12 [Compound 71, 1-[2-({8-methoxy-5H-pyrido[4,3-b]indol-7-yl}oxy)ethyl]pyrrolidine hydrochloride]	0.052
COc1cc2c(cc1OCCCN1CCC1)[nH]c1ccncc12 [Compound 72, 1-[3-({8-methoxy-5H-pyrido[4,3-b]indol-7-yl}oxy)propyl]azetidine hydrochloride]	0.0091
COc1cc2c(cc1OCCCN1CCCC1)[nH]c1ccnc(OC(C)C)c12 [Compound 75, 1-(3-{[8-methoxy-1-(propan-2-yloxy)-5H-pyrido[4,3-b]indol-7-yl]oxy}propyl)pyrrolidine trifluoroacetate]	1
COc1cc2c(cc1OCCCN1CCCC1)[nH]c1ccnc(-n3ccnc3)c12 [Compound 76, 1-{8-methoxy-7-[3-(pyrrolidin-1-yl)propoxy]-5H-pyrido[4,3-b]indol-1-yl}-1H-imidazole trifluoroacetate]	0.96
COc1cc2c(cc1OCCCN1CCCC1)[nH]c1ccnc(-n3cccn3)c12 [Compound 77, 1-[8-methoxy-7-[3-(pyrrolidin-1-yl)propoxy]-5H-pyrido[4,3-b]indol-1-yl]-1H-pyrazole trifluoroacetate]	2.5
COc1cc2c(cc1OCCCN1CCCC1)[nH]c1cc(CO)ncc12 [Compound 79, {8-methoxy-7-[3-(pyrrolidin-1-yl)propoxy]-5H-pyrido[4,3-b]indol-3-yl}methanol trifluoroacetate]	0.14
COc1cc2c(cc1OCCCN1CCCC1)[nH]c1ccnc(-c3cn[nH]c3)c12 [Compound 81, 4-[8-methoxy-7-[3-(pyrrolidin-1-yl)propoxy]-5H-pyrido[4,3-b]indol-1-yl]-1H-pyrazole hydrochloride]	0.022
